The values that follow come from patent publication US20230145305A1, “COMPOUNDS USEFUL AS KINASE INHIBITORS” (Fochon Biosciences, Ltd., priority 2020, published 2023).

One assay deals with OCI-LY10 cells. The assay can be described thus: Cell proliferation assay (MTS) in OCI-LY10 cells. To be noted: Homo sapiens, OCI-Ly10, 72 h, read-out: OCI-LY10 IC50 (nM). Format: cell-based. The source says:
MTS testing kit was purchased from Promega (Madison, Wis., USA). The RPMI-1640, Fetal bovine serum and Penicillin-Streptomycin were purchased from BI (Biological Industries, Beit Haemek, Israel). Dimethyl sulfoxide (DMSO) was purchased from Sigma (St. Louis., Mo., USA). […] To investigate whether a compound is able to inhibit the activity of BTK in cells, a mechanism-based assay using OCI-LY10 cells was developed. In this assay, inhibition of BTK was detected by the inhibition of OCI-LY10 cells proliferation. Cells were plated into 96-well plates at a density of 10000 cells/well. Plates were incubated at 37° C., with 5% CO2 for 4 h. […] Plates were incubated at 37° C., with 5% CO2 for 72 h. 20 μl MTS was added into each well and the plates were incubated at 37° C., with 5% CO2 for exactly 2 h. The absorbance was measured by a microplate reader at 490 nm. IC50 was calculated using GraphPad Prism 5.0 software. Select compounds prepared as described above were assayed according to the biological procedures described herein.
In the case of `COc1ccc(F)cc1C(=O)NCc1ccc(-c2nc(C3CCCC3)n3ncnc(N)c23)cc1` [Example 12, N-(4-(4-amino-7-cyclopentylimidazo [5,1-f][1,2,4]triazin-5-yl)benzyl)-5-fluoro-2-methoxybenzamide], the IC50 came to 9 nM.

The assay is the same for the next values; noted with them: Homo sapiens; inhibition of OCI-LY10 cells proliferation, 72 h incubation, MTS, absorbance at 490 nm; read-out: OCI-LY10 IC50.
For `COc1ccc(F)cc1C(=O)NCc1ccc(-c2nc(C3CCCC3)n3ccnc(N)c23)cc1` [Example 13, N-(4-(8-amino-3-cyclopentylimidazo [l,5-a]pyrazin-1-yl)benzyl)-5-fluoro-2-methoxybenzamide], the IC50 worked out at 2 nM. The same measure, in the same setting: the same measure for `COc1ccc(F)cc1C(=O)NCc1ccc(-n2nc(C3CCCC3)c3ccnc(N)c32)cc1` [Example 14, N-(4-(7-amino-3-cyclopentyl-1H-pyrazolo [3,4-c]pyridin-1-yl)benzyl)-5-fluoro-2-methoxybenzamide]: 85 nM; for `COc1ccc(F)cc1C(=O)NCc1ccc(-n2nc(C3CCCC3)c3c(=O)[nH]nc(N)c32)cc1` [Example 16, N-(4-(7-amino-3-cyclopentyl-4-oxo-4,5-dihydro-1H-pyrazolo[3,4-d]pyridazin-1-yl)benzyl)-5-fluoro-2-methoxybenzamide]: 1 nM; for `COc1ccc(F)cc1C(=O)NCc1ccc(-n2cc(C3CCCC3)c3ncnc(N)c32)cc1` [Example 18, N-(4-(4-amino-7-cyclopentyl-5H-pyrrolo [3,2-d]pyrimidin-5-yl)benzyl)-5-flu oro-2-methoxybenzamide]: 1 nM.

As to `COc1ccc(F)cc1C(=O)NCc1ccc(-n2c(=O)n(C3CCCC3)c3ccnc(N)c32)cc1` [Example 22, N-(4-(4-amino-1-cyclopentyl-2-oxo-1,2-dihydro-3H-imidazo[4,5-c]pyridin-3-yl)benzyl)-5-fluoro-2-methoxybenzamide], the IC50 came out at 44 nM. For the compound `COc1ccc(F)cc1C(=O)NCc1ccc(-n2cc(C3CCCCC3)c3c(=O)[nH]nc(N)c32)cc1` [Example 27, N-(4-(7-amino-3-cyclohexyl-4-oxo-4,5-dihydro-1H-pyrrolo[2,3-d]pyridazin-1-yl)benzyl)-5-fluoro-2-methoxybenzamide], the IC50 amounted to 1 nM. Still for that read-out and setting: in the case of `COc1ccc(F)cc1C(=O)NCc1ccc(-c2cn(C3CCCC3)c3c(=O)[nH]nc(N)c23)cc1F` [Example 30, N-(4-(4-amino-1-cyclopentyl-7-oxo-6,7-dihydro-1H-pyrrolo[2,3-d]pyridazin-3-yl)-2-fluorobenzyl)-5-fluoro-2-methoxybenzamide] it was 1 nM. Still for that read-out and setting: in the case of `COc1ccc(F)cc1C(=O)NCc1ccc(-c2cn(C3CCCC3)c3c(=O)[nH]nc(N)c23)c(F)c1` [Example 31, N-(4-(4-amino-1-cyclopentyl-7-oxo-6,7-dihydro-1H-pyrrolo[2,3-d]pyridazin-3-yl)-3-fluorobenzyl)-5-fluoro-2-methoxybenzamide] it was 1 nM; in that of `COc1ccc(F)cc1C(=O)NCc1ccc(-c2cn(C3CC3)c3c(=O)[nH]nc(N)c23)cc1` [Example 34, N-(4-(4-amino-1-cyclopropyl-7-oxo-6,7-dihydro-1H-pyrrolo[2,3-d]pyridazin-3-yl)benzyl)-5-fluoro-2-methoxybenzamide], 4 nM; in that of `COc1ccc(F)cc1C(=O)NCc1ccc(-c2cn(C3CCCCC3)c3c(=O)[nH]nc(N)c23)cc1` [Example 35, N-(4-(4-amino-1-cyclohexyl-7-oxo-6,7-dihydro-1H-pyrrolo[2,3-d]pyridazin-3-yl)benzyl)-5-fluoro-2-methoxybenzamide], 1 nM. As for `COc1ccc(F)cc1C(=O)NCc1ccc(-c2cn(C3CCC3)c3c(=O)[nH]nc(N)c23)cc1` [Example 36, N-(4-(4-amino-1-cyclobutyl-7-oxo-6,7-dihydro-1H-pyrrolo[2,3-d]pyridazin-3-yl)benzyl)-5-fluoro-2-methoxybenzamide], the IC50 was 1 nM. Still for that read-out and setting: the same measure for `COc1ccc(F)cc1C(=O)NCc1ccc(-c2cn(C3CCOCC3)c3c(=O)[nH]nc(N)c23)cc1` [Example 37, N-(4-(4-amino-7-oxo-1-(tetrahydro-2H-pyran-4-yl)-6,7-dihydro-1H-pyrrolo [2,3-d]pyridazin-3-yl)benzyl)-5-fluoro-2-methoxybenzamide]: 9 nM. On the same count and under the same terms, the same measure for `COc1ccc(F)cc1C(=O)NCc1ccc(-c2cn(C3CCCC3(C)O)c3c(=O)[nH]nc(N)c23)cc1` (stereo not drawn) [Example 38, N-(4-(4-amino-1-(2-hydroxy-2-methylcyclopentyl)-7-oxo-6,7-dihydro-1H-pyrrolo[2,3-d]pyridazin-3-yl)benzyl)-5-fluoro-2-methoxybenzamide]: 35 nM. Same read-out and setting: the same measure for `COc1ccc(F)cc1C(=O)NCc1ccc(-c2nn([C@@H](C)C(F)(F)F)c3c(=O)[nH]nc(N)c23)cc1` [Example 40a, (S)-N-(4-(4-amino-7-oxo-1-(1,1,1-trifluoropropan-2-yl)-6,7-dihydro-1H-pyrazolo[3,4-d]pyridazin-3-yl)benzyl)-5-fluoro-2-methoxybenzamide]: 7 nM; for `COc1ccc(F)cc1C(=O)NCc1ccc(-c2nn([C@H](C)C(F)(F)F)c3c(=O)[nH]nc(N)c23)cc1` [Example 40b, (R)-N-(4-(4-amino-7-oxo-1-(1,1,1-trifluoropropan-2-yl)-6,7-dihydro-1H-pyrazolo[3,4-d]pyridazin-3-yl)benzyl)-5-fluoro-2-methoxybenzamide]: 83 nM. `COc1ccc(F)cc1C(=O)NCc1ccc(-n2nc(C(C)C(F)(F)F)c3c(=O)[nH]nc(N)c32)cc1` (stereo not drawn) [Example 41, N-(4-(7-amino-4-oxo-3-(1,1,1-trifluoropropan-2-yl)-4,5-dihydro-1H-pyrazolo[3,4-d]pyridazin-1-yl)benzyl)-5-fluoro-2-methoxybenzamide]: the IC50 was 18 nM. Same read-out and setting: the same measure for `COc1ccc(F)cc1C(=O)NCc1ccc(-c2cn(C3CCCC3)c3c(=O)[nH]nc(N)c23)cn1` [Example 45, N-((5-(4-amino-1-cyclopentyl-7-oxo-6,7-dihydro-1H-pyrrolo[2,3-d]pyridazin-3-yl)pyridin-2-yl)methyl)-5-fluoro-2-methoxybenzamide]: 32 nM; for `COc1ccc(F)cc1C(=O)NCc1ccc(-c2cn([C@@H]3CCN(C(=O)C4CC4)C3)c3c(=O)[nH]nc(N)c23)cc1` [Example 48, (R)-N-(4-(4-amino-1-(1-(cyclopropanecarbonyl)pyrrolidin-3-yl)-7-oxo-6,7-dihydro-1H-pyrrolo[2,3-d]pyridazin-3-yl)benzyl)-5-fluoro-2-methoxybenzamide]: 48 nM; for `COC(=O)N1CC[C@@H](n2cc(-c3ccc(CNC(=O)c4cc(F)ccc4OC)cc3)c3c(N)n[nH]c(=O)c32)C1` [Example 49, methyl (R)-3-(4-amino-3-(4-((5-fluoro-2-methoxybenzamido)methyl)phenyl)-7-oxo-6,7-dihydro-1H-pyrrolo[2,3-d]pyridazin-1-yl)pyrrolidine-1-carboxylate]: 9 nM. In the case of `COc1ccc(F)cc1C(=O)NCc1ccc(-c2cn([C@@H]3CCN(S(C)(=O)=O)C3)c3c(=O)[nH]nc(N)c23)cc1` [Example 50, (R)-N-(4-(4-amino-1-(1-(methylsulfonyl)pyrrolidin-3-yl)-7-oxo-6,7-dihydro-1H-pyrrolo[2,3-d]pyridazin-3-yl)benzyl)-5-fluoro-2-methoxybenzamide], the IC50 is 19 nM. On the same count and under the same terms, the same measure for `COc1ccc(F)cc1C(=O)NCc1ccc(-c2cn(C(C)C(F)(F)F)c3c(=O)[nH]nc(N)c23)cc1F` (stereo not drawn) [Example 53, N-(4-(4-amino-7-oxo-1-(1,1,1-trifluoropropan-2-yl)-6,7-dihydro-1H-pyrrolo[2,3-d]pyridazin-3-yl)-2-fluorobenzyl)-5-fluoro-2-methoxybenzamide]: 3 nM; for `COc1ccc(F)cc1C(=O)NCc1ccc(-c2cn(C3CC(F)(F)C3)c3c(=O)[nH]nc(N)c23)cc1` [Example 54, N-(4-(4-amino-1-(3,3-difluorocyclobutyl)-7-oxo-6,7-dihydro-1H-pyrrolo[2,3-d]pyridazin-3-yl)benzyl)-5-fluoro-2-methoxybenzamide]: 1 nM; for `COc1ccc(F)cc1C(=O)NCc1ccc(-c2cn(C3CC(F)(F)C3)c3c(=O)[nH]nc(N)c23)cn1` [Example 55]: 28 nM.

In the case of `COc1ccc(F)cc1C(=O)NCc1ccc(-c2cn(C3CC(F)(F)C3)c3c(=O)[nH]nc(N)c23)cc1F` [Example 56, N-(4-(4-amino-1-(3,3-difluorocyclobutyl)-7-oxo-6,7-dihydro-1H-pyrrolo[2,3-d]pyridazin-3-yl)-2-fluorobenzyl)-5-fluoro-2-methoxybenzamide], the IC50 turned out to be 3 nM. For `COc1ccc(F)cc1C(=O)NCc1ccc(-c2cn([C@@H]3C[C@@H]3F)c3c(=O)[nH]nc(N)c23)cc1` [Example 57, N-(4-(4-amino-1-((1R,2S)-2-fluorocyclopropyl)-7-oxo-6,7-dihydro-1H-pyrrolo[2,3-d]pyridazin-3-yl)benzyl)-5-fluoro-2-methoxybenzamide], the IC50 worked out at 24 nM. As for `COc1ccc(F)cc1C(=O)NCc1ccc(-c2cn([C@@H]3C[C@@H]3F)c3c(=O)[nH]nc(N)c23)cc1F` [Example 59, N-(4-(4-amino-1-((1R,2S)-2-fluorocyclopropyl)-7-oxo-6,7-dihydro-1H-pyrrolo[2,3-d]pyridazin-3-yl)-2-fluorobenzyl)-5-fluoro-2-methoxybenzamide], the half-inhibitory concentration (IC50) amounted to 62 nM.
